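Method: 48-hour compound exposure of cells in 96-well plates, five concentrations, linear interpolation of endpoints. The concentration for 50% growth inhibition is given as GI50.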 Activity calls are given as the source filed them. Rule as the data show it: active = GI50 up to about 1.1 µM and inactive = higher. Non-standard residues stand in square brackets, D forms with d. Residues, ends and D or L forms follow the SMILES beside them. ξ: configuration not given here. ξLac(3-iPr) = CC(C)CC(O)C(=O)O; NMeV = CN[CH](C(=O)O)C(C)C; NMeA = CN[CH](C)C(=O)O; βAla = NCCC(=O)O
Key:
Assay in all cases: inhibition of tumour cell growth, NCI panel, 48 h
MCF7 = tested on: MCF7
OVCAR-4 = tested on: OVCAR-4
HL-60 = tested on: HL-60
786-0 = tested on: 786-0
M14 = tested on: M14
LOX IMVI = tested on: LOX IMVI
SR = tested on: SR
DU-145 = tested on: DU-145
HCT-15 = tested on: HCT-15
BT-549 = tested on: BT-549
SK-MEL-2 = tested on: SK-MEL-2
A498 = tested on: A498
UACC-62 = tested on: UACC-62
EKVX = tested on: EKVX
MOLT-4 = tested on: MOLT-4
SF-268 = tested on: SF-268
SNB-75 = tested on: SNB-75
M19-MEL = tested on: M19-MEL
DMS-273 = tested on: DMS-273

SMILES | GI50 (MCF7) | GI50 (OVCAR-4) | GI50 (HL-60) | GI50 (786-0) | GI50 (M14) | GI50 (LOX IMVI) | GI50 (SR) | GI50 (DU-145) | GI50 (HCT-15) [µM] | GI50 (BT-549) | GI50 (SK-MEL-2) | GI50 (A498) | GI50 (UACC-62) | GI50 (EKVX) | GI50 (MOLT-4) | GI50 (SF-268) | GI50 (SNB-75) | GI50 (M19-MEL) | GI50 (DMS-273)
COc1ccc(CN/C=N/C(C#N)=C(\N)C#N)cc1OC | > 100 µM (inactive) | > 100 µM (inactive) | > 100 µM (inactive) | > 100 µM (inactive) | > 100 µM (inactive) | > 100 µM (inactive) | > 100 µM (inactive) | > 100 µM (inactive) | > 100 | 72.3 µM (inactive) | > 100 µM (inactive) | 54.8 µM (inactive) | > 100 µM (inactive) | > 100 µM (inactive) | > 100 µM (inactive) | > 100 µM (inactive) | 76.7 µM (inactive) | – | –
Cc1ccc(S(=O)(=O)NC(=N)N(C)N=O)cc1 | > 100 µM (inactive) | > 100 µM (inactive) | > 100 µM (inactive) | > 100 µM (inactive) | > 100 µM (inactive) | > 100 µM (inactive) | > 100 µM (inactive) | > 100 µM (inactive) | > 100 | > 100 µM (inactive) | > 100 µM (inactive) | 71.4 µM (inactive) | 26.4 µM (inactive) | 85.9 µM (inactive) | > 100 µM (inactive) | > 100 µM (inactive) | 38.2 µM (inactive) | – | –
CCCCNc1nc(NC2OCC(OC(C)=O)C(OC(C)=O)C2OC(C)=O)c(N=O)c(=O)n1C (stereo not given) | > 10 µM (inactive) | > 10 µM (inactive) | > 10 µM (inactive) | > 10 µM (inactive) | > 10 µM (inactive) | > 10 µM (inactive) | > 10 µM (inactive) | > 10 µM (inactive) | > 10 | > 10 µM (inactive) | > 10 µM (inactive) | > 10 µM (inactive) | > 10 µM (inactive) | > 10 µM (inactive) | > 10 µM (inactive) | > 10 µM (inactive) | > 10 µM (inactive) | – | –
N=C(N)SCCON1C(=O)c2ccccc2C1=O | > 100 µM (inactive) | > 100 µM (inactive) | > 100 µM (inactive) | > 100 µM (inactive) | > 100 µM (inactive) | > 100 µM (inactive) | > 100 µM (inactive) | > 100 µM (inactive) | > 100 | > 100 µM (inactive) | > 100 µM (inactive) | > 100 µM (inactive) | > 100 µM (inactive) | > 100 µM (inactive) | > 100 µM (inactive) | > 100 µM (inactive) | > 100 µM (inactive) | – | –
CC1=C(OC2OC(CO)C(O)C(O)C2O)C(=O)C[C@H]2C1=CC[C@@H]1[C@@]2(C)C(=O)C[C@]2(C)[C@@H]([C@@](C)(O)C(=O)CCC(C)(C)O)[C@H](O)C[C@@]12C (stereo not given in full) | > 100 µM (inactive) | > 100 µM (inactive) | > 100 µM (inactive) | > 100 µM (inactive) | > 100 µM (inactive) | > 100 µM (inactive) | > 100 µM (inactive) | > 100 µM (inactive) | > 100 | > 100 µM (inactive) | > 100 µM (inactive) | > 100 µM (inactive) | > 100 µM (inactive) | > 100 µM (inactive) | > 100 µM (inactive) | > 100 µM (inactive) | > 100 µM (inactive) | – | –
CCCN(CCC)C(=O)c1c([N+](=O)[O-])cc(C(F)(F)F)cc1[N+](=O)[O-] | – | 14.9 µM (inactive) | 20 µM (inactive) | 68.2 µM (inactive) | 22.5 µM (inactive) | 35.7 µM (inactive) | 51.3 µM (inactive) | – | 27 | – | 39.4 µM (inactive) | 75.7 µM (inactive) | 17.9 µM (inactive) | 52.5 µM (inactive) | 52.6 µM (inactive) | > 100 µM (inactive) | > 100 µM (inactive) | 13.7 µM (inactive) | 35.4 µM (inactive)
C[C@@]12C[C@@H](c3ccccc3O1)N1CCSC1=N2 | > 100 µM (inactive) | > 100 µM (inactive) | > 100 µM (inactive) | > 100 µM (inactive) | > 100 µM (inactive) | > 100 µM (inactive) | > 100 µM (inactive) | > 100 µM (inactive) | > 100 | > 100 µM (inactive) | > 100 µM (inactive) | > 100 µM (inactive) | > 100 µM (inactive) | > 100 µM (inactive) | 75.5 µM (inactive) | > 100 µM (inactive) | > 100 µM (inactive) | – | –
CCC(C)C1NC(=O)C2CCCN2C(=O)C(CC(C)C)OC(=O)CCNC(=O)C(C)N(C)C(=O)C(C(C)C)N(C)C1=O (stereo not given) (cyclo([ξLac(3-iPr)]PI[NMeV][NMeA][βAla]); configuration not given here) | 2.64 µM (inactive) | > 50.7 µM (inactive) | 0.593 µM (active) | 2.09 µM (inactive) | 1.91 µM (inactive) | 1.11 µM (active) | 0.766 µM (active) | 4.05 µM (inactive) | 4.57 | > 26.1 µM (inactive) | 2.42 µM (inactive) | 23.9 µM (inactive) | 2.21 µM (inactive) | 10.2 µM (inactive) | 1.83 µM (inactive) | 6 µM (inactive) | 15.5 µM (inactive) | – | –
